Test results taken from patent US11066357B2, “Benzoannulene derivatives as antiviral agents” (Southern Research Institute, priority 2017, dated 2021).

Tests used:
CHIKV = assay: antiviral activity (EC50), Table 1; assay type: cell-based; settings: Chikungunya virus
[1] = cytotoxicity (CC50), Table 1

SMILES	EC50 (CHIKV)	CC50 [1]
COc1cc2c(cc1C(=O)Nc1ccc(C(C)(C)C)cc1)CCCCC2 [Compound 1, N-(4-(tert.-butyl)phenyl)-3-methoxy-6,7,8,9-tetrahydro-5H-benzo[7]annulene-2-carboxamide]	0.32 µM	> 40 µM
CC(C)(C)c1ccc(NC(=O)c2cc3c(cc2O)CCCCC3)cc1 [Compound 2, N-(4-(tert.-butyl)phenyl)-3-hydroxy-6,7,8,9-tetrahydro-5H-benzo[7]annulene-2-carboxamide]	1.1 µM	9.8 µM
CC(C)(C)c1ccc(NC(=O)c2ccc3c(c2)CCCCC3)cc1 [Compound 3, N-(4-(tert.-butyl)phenyl)-6,7,8,9-tetrahydro-5H-benzo[7]annulene-2-carboxamide]	1.09 µM	> 40 µM
COc1cc2c(cc1C(=O)Nc1cc(C)n(C(C)(C)C)n1)CCCCC2 [Compound 4, N-(1-(tert.-butyl)-5-methyl-1H-pyrazol-3-yl)-3-methoxy-6,7,8,9-tetrahydro-5H-benzo[7]annulene-2-carboxamide]	3.9 µM	22.3 µM
CCn1nc(NC(=O)c2cc3c(cc2OC)CCCCC3)cc1C [Compound 5, N-(1-ethyl-5-methyl-1H-pyrazol-3-yl)-3-methoxy-6,7,8,9-tetrahydro-5H-benzo[7]annulene-2-carboxamide]	9.9 µM	> 40 µM
CCn1nc(C(F)(F)F)c(NC(=O)c2cc3c(cc2OC)CCCCC3)c1C [Compound 6, N-(1-ethyl-5-methyl-3-(trifluoromethyl)-1H-pyrazol-4-yl)-3-methoxy-6,7,8,9-tetrahydro-5H-benzo[7]annulene-2-carboxamide]	35.2 µM	> 40 µM
COc1cc2c(cc1C(=O)Nc1ccc(C(C)(C)C)s1)CCCCC2 [Compound 7, N-(5-(tert.-butyl)thiophen-2-yl)-3-methoxy-6,7,8,9-tetrahydro-5H-benzo[7]annulene-2-carboxamide]	> 40 µM	> 40 µM
COc1cc2c(cc1C(=O)Nc1ncc(C(C)(C)C)s1)CCCCC2 [Compound 8, N-(5-(tert.-butyl)thiazol-2-yl)-3-methoxy-6,7,8,9-tetrahydro-5H-benzo[7]annulene-2-carboxamide]	9.63 µM	> 40 µM
COc1cc2c(cc1C(=O)Nc1cnc(C(C)(C)C)s1)CCCCC2 [Compound 9, N-(2-(tert.-butyl)thiazol-5-yl)-3-methoxy-6,7,8,9-tetrahydro-5H-benzo[7]annulene-2-carboxamide]	> 40 µM	> 40 µM
COc1cc2c(cc1C(=O)Nc1ccc(C(C)(C)O)cc1)CCCCC2 [Compound 10, N-(4-(2-hydroxypropan-2-yl)phenyl)-3-methoxy-6,7,8,9-tetrahydro-5H-benzo[7]annulene-2-carboxamide]	1.8 µM	24.9 µM
COc1cc2c(cc1C(=O)Nc1ccc(C(C)(C)C)cn1)CCCCC2 [Compound 11, N-(5-(tert.-butyl)pyridin-2-yl)-3-methoxy-6,7,8,9-tetrahydro-5H-benzo[7]annulene-2-carboxamide]	1.14 µM	> 40 µM
COc1cc2c(cc1C(=O)Nc1ccc(C(O)(C(F)(F)F)C(F)(F)F)cc1)CCCCC2 [Compound 12, N-(4-(1,1,1,3,3,3-hexafluoro-2-hydroxypropan-2-yl)phenyl)-3-methoxy-6,7,8,9-tetrahydro-5H-benzo[7]annulene-2-carboxamide]	> 40 µM	> 40 µM
COc1cc2c(cc1C(=O)Nc1sc(C(C)(C)C)cc1C#N)CCCCC2 [Compound 13, N-(5-(tert.-butyl)-3-cyanothiophen-2-yl)-3-methoxy-6,7,8,9-tetrahydro-5H-benzo[7]annulene-2-carboxamide]	> 40 µM	> 40 µM
COc1cc2c(cc1C(=O)Nc1ccc(OC(F)(F)F)cc1)CCCCC2 [Compound 14, 3-methoxy-N-(4-(trifluoromethoxy)phenyl)-6,7,8,9-tetrahydro-5H-benzo[7]annulene-2-carboxamide]	> 40 µM	> 40 µM
COc1cc2c(cc1C(=O)Nc1ccc(-c3ccccc3)cc1)CCCCC2 [Compound 15, N-([1,1′-biphenyl]-4-yl)-3-methoxy-6,7,8,9-tetrahydro-5H-benzo[7]annulene-2-carboxamide]	> 40 µM	> 40 µM
COc1cc2c(cc1C(=O)Nc1ccc(-c3ccccc3)cn1)CCCCC2 [Compound 16, 3-methoxy-N-(5-phenylpyridin-2-yl)-6,7,8,9-tetrahydro-5H-benzo[7]annulene-2-carboxamide]	> 40 µM	> 40 µM
CC(C)(C)c1ccc(NC(=O)c2cc3c(cc2OC(F)F)CCCCC3)cc1 [Compound 17, N-(4-(tert.-butyl)phenyl)-3-(difluoromethoxy)-6,7,8,9-tetrahydro-5H-benzo[7]annulene-2-carboxamide]	> 40 µM	> 40 µM
COc1cc2c(cc1C(=O)NCc1ccc(C(C)(C)C)cc1)CCCCC2 [Compound 18, N-(4-(tert.-butyl)benzyl)-3-methoxy-6,7,8,9-tetrahydro-5H-benzo[7]annulene-2-carboxamide]	3.5 µM	> 40 µM
COc1cc2c(cc1C(=O)Nc1ccc(-c3cc[nH]n3)cc1)CCCCC2 [Compound 19, N-(4-(1H-pyrazol-3-yl)phenyl)-3-methoxy-6,7,8,9-tetrahydro-5H-benzo[7]annulene-2-carboxamide]	3.65 µM	23.2 µM
COc1cc2c(cc1C(=O)Nc1ccc(N3CCCS3(=O)=O)cc1)CCCCC2 [Compound 20, N-(4-(1,1-dioxidoisothiazolidin-2-yl)phenyl)-3-methoxy-6,7,8,9-tetrahydro-5H-benzo[7]annulene-2-carboxamide]	> 5 µM	> 40 µM
CCOc1cc2c(cc1C(=O)Nc1ccc(C(C)(C)C)cc1)CCCCC2 [Compound 21, N-(4-(tert.-butyl)phenyl)-3-ethoxy-6,7,8,9-tetrahydro-5H-benzo[7]annulene-2-carboxamide]	29.9 µM	> 40 µM
CCc1cc2c(cc1C(=O)Nc1ccc(C(C)(C)C)cc1)CCCCC2 [Compound 22, N-(4-(tert.-butyl)phenyl)-3-ethyl-6,7,8,9-tetrahydro-5H-benzo[7]annulene-2-carboxamide]	> 40 µM	> 40 µM
CC(C)(C)c1ccc(NC(=O)c2cc3c(cc2O)CCCCC3)nc1 [Compound 23, N-(5-(tert.-butyl)pyridin-2-yl)-3-hydroxy-6,7,8,9-tetrahydro-5H-benzo[7]annulene-2-carboxamide]	3.8 µM	> 40 µM
COc1cc2c(cc1C(=O)Nc1ccc(C(C)(C)C#N)cc1)CCCCC2 [Compound 24, N-(4-(2-cyanopropan-2-yl)phenyl)-3-methoxy-6,7,8,9-tetrahydro-5H-benzo[7]annulene-2-carboxamide]	0.2 µM	> 40 µM
COc1cc2c(cc1C(=O)Nc1cc(-c3ccccc3)[nH]n1)CCCCC2 [Compound 25, 3-methoxy-N-(5-phenyl-1H-pyrazol-3-yl)-6,7,8,9-tetrahydro-5H-benzo[7]annulene-2-carboxamide]	> 40 µM	> 40 µM
COc1cc2c(cc1C(=O)Nc1cc(C(C)(C)C)[nH]n1)CCCCC2 [Compound 26, N-(5-(tert.-butyl)-1H-pyrazol-3-yl)-3-methoxy-6,7,8,9-tetrahydro-5H-benzo[7]annulene-2-carboxamide]	7.03 µM	15.5 µM
